Measurements reported in paper PMC10982999, “Structure-Guided Design and Optimization of Covalent VHL-Targeted Sulfonyl Fluoride PROTACs” (Journal of Medicinal Chemistry, 2024).

Biological target: T1, VHL in HEK293T cells (Homo sapiens, UniProt P40337)
T1 construct: endogenous in cells; host or cells: HEK293T
Assay: Gel-based competition pull-down assay from live cells
Type: cell-based
Settings: HEK293T cells pretreated 2 h at 37 °C; lysate treated with VHL-SF2-Biotin 50 μM 2 h
Protocol: Figure 2 (A) Structure of VHL-SF2. […] (E) Competition pull-down assay from live cells between VHL-SF2-Biotin and VHL-SF2. HEK293T cells were pretreated with DMSO or varying concentrations of VHL-SF2 for 2 h at 37 °C. The cells were lysed and treated with DMSO or VHL-SF2-Biotin (50 μM) for 2 h at room temperature. A pull-down with streptavidin beads was conducted, after which the protein was resolved on SDS/PAGE. VHL and loading control GAPDH levels were visualized by Western blotting.
Initially, we subjected VHL-SF2-Biotin to the streptavidin shift assay and observed a greater extent of VHL modification (44%) than for VHL-SF1-Biotin under the same conditions (Figure S2). […] Intact LC–MS analysis confirmed single labeling of VHL by VHL-SF2, with 65% conversion at 24 h (Figure S5). Although we attempted several site ID identification experiments by digesting the labeled recombinant VHL, the Ser110-containing peptide was not detected in the samples treated with VHL-SF2. This observation is consistent with a change in peptide properties that is incompatible with mass spectrometry detection compared to untreated samples (Table S2). […]
VCB (11.1 mg/ mL) was diluted with PBS pH 7.4 (2 µg/ mL). […] 10 µL of each sample was loaded onto the gel and the bands were quantified […]

Cc1cc([C@H](C(=O)N2C[C@H](S(=O)(=O)F)C[C@H]2C(=O)N[C@@H](CC(=O)OC(C)(C)C)c2ccc(-c3scnc3C)cc2)C(C)C)on1 [VHL-SF2, tert-Butyl (S)-3-((2S,4R)-4-(Fluorosulfonyl)-1-((R)-3-methyl-2-(3-methylisoxazol-5-yl)butanoyl)pyrr-olidine-2-carboxamido)-3-(4-(4-methylthiazol-5-yl)phenyl)propanoate]
pull-down of VHL by VHL-SF2-Biotin after compound pretreatment: dose-dependently competed
